In patent US9994556B2, “Triazole modified coumarin and biphenyl amide-based HSP90 inhibitors” (THE UNIVERSITY OF KANSAS, priority 2014, dated 2018):

Columns and labels:
Assay type in all cases: cell-based
[1] = test system: LNCaP cells; test: Sulforhodamine B assay, LNCaP; conditions: Homo sapiens, Table 1 coumarin-based triazoles, mean ± standard deviation
Experimental: (§1) c) Sulforhodamine B Assay
(§2) The sulforhodamine B assay is used to measure drug-induced cytotoxicity and cell proliferation for large-scale drug-screening applications. Its principle is based on the ability of the protein dye sulforhodamine B to bind electrostatically on pH dependent protein basic amino acid residues of trichloroacetic acid-fixed cells. The aim is to evaluate samples showing selective growth inhibition or cell killing of particular tumor cell lines.
(§3) The SRB assay is performed by treating cells using a 10 point dose-response curve. The cells are fixed with trichloroacetic acid solution and stained with sulforhodamine B dye. The stained cells are then solubilized with 10 mM Tris buffer and read for absorbance at 565 nm.
(§4) Percentage growth is calculated at each of the drug concentration levels using the absorbance raw data.
(§5) Percentage growth inhibition is calculated as: [(Ti−Tz)/(C−Tz)]×100 for concentrations for which Ti≥Tz. [(Ti−Tz)/(Tz)]×100 for concentrations for which Ti<Tz.
(§6) Ti=Absorbance of wells at a given drug concentration level.
(§7) Tz=Absorbance time zero wells
(§8) C=Absorbance of untreated wells (media and cells only)
(§9) After growth inhibition values have been calculated, the data is plotted on Graphpad Prism software. Data is entered and plotted on a sigmoidal dose-response curve using non-linear regression.

[2] = test system: JMAR cell line; test: Promega CellTiter-Glo (CTG) luminescent assay, JMAR; conditions: Table 1 coumarin-based triazoles, 72 hr, mean ± standard deviation
Experimental: (§10) b) Promega CellTiter-Glo (CTG) Luminescent Assay
(§11) Antiproliferative activities against MDA-MB-468LN, MDA1986 and JMAR cell lines were performed with 384-well white plates with the Promega CellTiter-Glo (CTG) luminescent assay with 72 hr compound treatment. Data analysis was performed using GraphPad Prism. Selected data were further checked with MTS/PMS cell viability assay with 96-well plates, which correlated well with Promega CellTiter-Glo luminescent assay.

[3] = test system: PC3-MM2 cells; test: Sulforhodamine B assay, PC3-MM2; conditions: Homo sapiens, PC3MM2; Table 1 coumarin-based triazoles; mean ± standard deviation
Experimental: as §1, §2, §3, §4, §5, §6, §7, §8, §9

[4] = test system: MCF-7 cells; test: MTS/PMS cell viability assay, MCF-7; conditions: Homo sapiens, MCF7; Table 1 coumarin-based triazoles; 72 hr; mean ± standard deviation; read-out: IC50 MCF-7
Experimental: (§12) a) MTS/PMS Cell Viability Assay (SKBr3 and MCF-7 Cells)
(§13) Cells were maintained in a 1:1 mixture of Advanced DMEM/F12 (Gibco) supplemented with non-essential amino acids, L-glutamine (2 mM), streptomycin (500 μg/mL), penicillin (100 units/mL), and 10% FBS. Cells were grown to confluence in a humidified atmosphere (37° C., 5% CO2), seeded (2000/well, 100 μL) in 96-well plates, and allowed to attach overnight. Compound at varying concentrations in DMSO (1% DMSO final concentration) was added, and cells were returned to the incubator for 72 hr. At 72 hr, the number of viable cells was determined using an MTS/PMS cell proliferation kit (Promega) per the manufacturer's instructions. Cells incubated in 1% DMSO were used at 100% proliferation, and values were adjusted accordingly. IC50 values were calculated from separate experiments performed in triplicate using GraphPad Prism.

[5] = test system: MDA1986 cell line; test: Promega CellTiter-Glo (CTG) luminescent assay, MDA1986; conditions: Table 1 coumarin-based triazoles, 72 hr, mean ± standard deviation, read-out: IC50 MDA1986
Experimental: as §10, §11

[6] = test system: SKBr3 cells; test: MTS/PMS cell viability assay, SKBr3; conditions: Homo sapiens, SK-BR-3; Table 1 coumarin-based triazoles; 72 hr; mean ± standard deviation, at least two experiments in triplicate; read-out: IC50 SKBr3
Experimental: as §12, §13

[7] = test system: MDA-MB-468LN cell line; test: Promega CellTiter-Glo (CTG) luminescent assay, MDA-MB-468LN; conditions: Homo sapiens; Table 1 coumarin-based triazoles; 72 hr; mean ± standard deviation
Experimental: as §10, §11

SMILES | IC50 [1] [nM] | IC50 [3] [nM] | IC50 [4] [nM] | IC50 [6] [nM] | IC50 [7] [nM] | IC50 [2] [nM] | IC50 [5] [nM]
Cc1c(OC2CCN(C)CC2)ccc2cc(NC(=O)c3cn(-c4ccc(Cl)cc4)nn3)c(=O)oc12 [4c, 1-(4-chlorophenyl)-N-(8-methyl-7-((1-methylpiperidin-4-yl)oxy)-2-oxo-2H-chromen-3-yl)-1H-1,2,3-triazole-4-carboxamide] | 2450 ± 470 | 2790 ± 490 | 2040 ± 250 | 580 ± 30 | 810 ± 150 | 430 ± 380 | 180 ± 110
Cc1c(OC2CCN(C)CC2)ccc2cc(NC(=O)c3cn(-c4ccc(Br)cc4)nn3)c(=O)oc12 [4d, 1-(4-Bromophenyl)-N-(8-methyl-7-((1-methylpiperidin-4-yl)oxy)-2-oxo-2H-chromen-3-yl)-1H-1,2,3-triazole-4-carboxamide] | 15200 ± 9190 | 3810 ± 4990 | 5070 ± 1860 | 1380 ± 50 | 2800 ± 500 | 3600 ± 630 | 2900 ± 330
Cc1ccc(-n2cc(C(=O)Nc3cc4ccc(OC5CCN(C)CC5)c(C)c4oc3=O)nn2)cc1 [4e, 1-(4-methylphenyl)-N-(8-methyl-7-((1-methylpiperidin-4-yl)oxy)-2-oxo-2H-chromen-3-yl)-1H-1,2,3-triazole-4-carboxamide] | > 100000 | > 100000 | 1380 ± 70 | 1080 ± 50 | 4000 ± 1920 | 3640 | 290
Cc1c(OC2CCN(C)CC2)ccc2cc(NC(=O)c3cn(Cc4ccc(C(C)(C)C)cc4)nn3)c(=O)oc12 [4k, 1-(4-tert-Butylbenzyl)-N-(8-methyl-7-((1-methylpiperidin-4-yl)oxy)-2-oxo-2H-chromen-3-yl)-1H-1,2,3-triazole-4-carboxamide] | 1840 | 2370 | 1220 ± 70 | 450 ± 30 | 740 ± 220 | 580 ± 140 | 340 ± 90
Cc1c(OC2CCN(C)CC2)ccc2cc(NC(=O)c3cn(CCCc4ccccc4)nn3)c(=O)oc12 [4s, N-(8-methyl-7-((1-methylpiperidin-4-yl)oxy)-2-oxo-2H-chromen-3-yl)-1-(3-phenylpropyl)-1H-1,2,3-triazole-4-carboxamide] |  |  | 1650 ± 30 | 1730 ± 50 |  |  | 

The next lines start with results.

IC50 [1] [nM] | IC50 [3] [nM] | IC50 [4] [nM] | IC50 [6] [nM] | IC50 [7] [nM] | SMILES | IC50 [2] [nM] | IC50 [5] [nM]
4650 ± 710 | 3670 ± 1380 | 1440 ± 310 | 1140 ± 190 | 2200 ± 300 | Cc1c(OC2CCN(C)CC2)ccc2cc(NC(=O)c3cn(Cc4ccc(Cl)cc4)nn3)c(=O)oc12 [4g, 1-(4-Chlorobenzyl)-N-(8-methyl-7-((1-methylpiperidin-4-yl)oxy)-2-oxo-2H-chromen-3-yl)-1H-1,2,3-triazole-4-carboxamide] | 1700 ± 200 | 1700 ± 520
4960 ± 670 | 3800 ± 1420 | 1360 ± 80 | 730 ± 10 | 2100 ± 600 | Cc1c(OC2CCN(C)CC2)ccc2cc(NC(=O)c3cn(Cc4ccc(Br)cc4)nn3)c(=O)oc12 [4h, 1-(4-Bromobenzyl)-N-(8-methyl-7-((1-methylpiperidin-4-yl)oxy)-2-oxo-2H-chromen-3-yl)-1H-1,2,3-triazole-4-carboxamide] | 1600 ± 310 | 2000 ± 500
7240 ± 1020 | 7320 ± 5440 | 1500 ± 190 | 1210 ± 70 | 2400 ± 250 | Cc1ccc(Cn2cc(C(=O)Nc3cc4ccc(OC5CCN(C)CC5)c(C)c4oc3=O)nn2)cc1 [4i, 1-(4-Methylbenzyl)-N-(8-methyl-7-((1-methylpiperidin-4-yl)oxy)-2-oxo-2H-chromen-3-yl)-1H-1,2,3-triazole-4-carboxamide] | 1800 ± 950 | 1500 ± 200
> 100000 | 7850 ± 420 | 1420 ± 140 | 1310 ± 200 | 3400 ± 1270 | COc1ccc(Cn2cc(C(=O)Nc3cc4ccc(OC5CCN(C)CC5)c(C)c4oc3=O)nn2)cc1 [4j, 1-(4-Methoxybenzyl)-N-(8-methyl-7-((1-methylpiperidin-4-yl)oxy)-2-oxo-2H-chromen-3-yl)-1H-1,2,3-triazole-4-carboxamide] | 6700 | 2600 ± 300
